Experimental data from BindingDB's records for PubMed 6310078 (Pfizer, 1983).
Where a name gives a salt, the structure may show the parent alone.

Assays:
[1] = biological target: T1, Muscarinic acetylcholine receptor M2 (Rattus norvegicus, UniProt P10980)
T1 sequence (P10980 whole entry): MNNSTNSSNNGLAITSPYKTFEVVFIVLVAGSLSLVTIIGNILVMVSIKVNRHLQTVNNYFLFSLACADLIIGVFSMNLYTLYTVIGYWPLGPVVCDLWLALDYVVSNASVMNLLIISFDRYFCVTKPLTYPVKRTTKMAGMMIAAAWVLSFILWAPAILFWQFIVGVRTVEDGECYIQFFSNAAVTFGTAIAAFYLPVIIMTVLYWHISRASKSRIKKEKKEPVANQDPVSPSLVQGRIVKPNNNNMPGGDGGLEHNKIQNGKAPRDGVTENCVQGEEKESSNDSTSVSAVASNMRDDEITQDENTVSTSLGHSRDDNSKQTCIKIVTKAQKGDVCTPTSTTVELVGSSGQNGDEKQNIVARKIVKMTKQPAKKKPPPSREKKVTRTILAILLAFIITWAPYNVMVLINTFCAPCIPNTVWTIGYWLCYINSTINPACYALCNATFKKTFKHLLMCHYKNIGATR

[2] = biological target: Sodium-dependent dopamine transporter (Rattus norvegicus, UniProt P23977)
Chain of Sodium-dependent dopamine transporter (P23977 whole entry): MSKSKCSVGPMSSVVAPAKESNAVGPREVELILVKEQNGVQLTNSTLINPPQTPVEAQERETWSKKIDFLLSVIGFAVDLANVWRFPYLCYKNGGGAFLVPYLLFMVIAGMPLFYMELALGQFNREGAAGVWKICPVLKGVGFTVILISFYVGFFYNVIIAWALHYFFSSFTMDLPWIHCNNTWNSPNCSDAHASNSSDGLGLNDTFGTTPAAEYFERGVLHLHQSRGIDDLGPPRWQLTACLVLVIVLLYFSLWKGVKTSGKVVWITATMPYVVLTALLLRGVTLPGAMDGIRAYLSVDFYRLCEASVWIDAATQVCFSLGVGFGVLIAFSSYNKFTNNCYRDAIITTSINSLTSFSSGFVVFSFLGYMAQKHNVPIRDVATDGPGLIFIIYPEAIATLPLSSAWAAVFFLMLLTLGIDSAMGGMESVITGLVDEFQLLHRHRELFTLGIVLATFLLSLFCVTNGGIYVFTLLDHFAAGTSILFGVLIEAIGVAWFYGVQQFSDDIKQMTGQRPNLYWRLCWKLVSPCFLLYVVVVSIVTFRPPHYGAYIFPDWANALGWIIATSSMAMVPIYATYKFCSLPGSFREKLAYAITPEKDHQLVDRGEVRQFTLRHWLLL

[3] = biological target: Norepinephrine transporter (Rattus norvegicus, UniProt Q9JIA2)

CNCCCN1c2ccccc2CCc2ccccc21 [Desmethylimipramine]
Ki [1]: 3.5 µM

CN(C)C/C=C(/c1ccc(Br)cc1)c1cccnc1 [cis-[3-(4-Bromo-phenyl)-3-pyridin-3-yl-allyl]-dimethyl-amine;HCl]
Ki [2]: > 10 µM

COCCCC/C(=N\OCCN)c1ccc(C(F)(F)F)cc1 [(1E)-5-methoxy-1-[4-(trifluoromethyl)phenyl]pentan-1-one O-(2-aminoethyl)oxime]
Ki [2]: > 10 µM
Ki [3]: 1.9 µM

N[C@H]1CC[C@@H](c2ccc(Cl)c(Cl)c2)c2ccccc21
Ki [2]: 3.8 µM
Ki [3]: 4.6 µM

CNCCC=C1c2ccccc2CCc2ccccc21 [NORTRIPTYLINE]
Ki [2]: > 10 µM
Ki [3]: 0.025 µM

CNC/C=C(/c1ccc(Br)cc1)c1cccnc1
Ki [2]: > 10 µM

CN(C)CCCN1c2ccccc2CCc2ccc(Cl)cc21 [CLOMIPRAMINE HYDROCHLORIDE]
Ki [2]: 8.1 µM

CN(C)CCC=C1c2ccccc2CCc2ccccc21
Ki [1]: 0.32 µM
Ki [2]: > 10 µM
Ki [3]: 0.13 µM

CN[C@@H]1CC[C@@H](c2ccc(Cl)c(Cl)c2)c2ccccc21 [[4-(3,4-Dichloro-phenyl)-1,2,3,4-tetrahydro-naphthalen-1-yl]-methyl-amine]
Ki [1]: > 10 µM

CN(C)CC/C=C1/c2ccccc2COc2ccccc21
Ki [1]: 0.71 µM

CN[C@@H]1CC[C@@H](c2ccccc2)c2ccccc21
Ki [1]: 4.7 µM
Ki [2]: 0.15 µM
Ki [3]: 0.018 µM
